Earlier results on 43 molecules are cited in paper doi:10.1101/2024.08.20.608791v1 (bioRxiv, 2024).

A value given as a limit tells only on which side of the number the result lay.

For the first data set the following is noted: humans.
On to `CO[C@H]1C[C@H](O[C@H]2CC[C@]3(C=O)[C@H]4CC[C@]5(C)[C@@H](C6=CC(=O)OC6)CC[C@]5(O)[C@@H]4CC[C@]3(O)C2)O[C@H](C)[C@H]1O[C@@H]1O[C@H](CO[C@@H]2O[C@H](CO)[C@@H](O)[C@H](O)[C@H]2O)[C@@H](O)[C@H](O)[C@H]1O` [k-strophanthoside], for which the “fraction absorbed (fa) of approved oral drugs” value is reported as 16%.
`CC1(C)CCC(CN2CCN(c3ccc(C(=O)NS(=O)(=O)c4ccc(NCC5CCOCC5)c([N+](=O)[O-])c4)c(Oc4cnc5[nH]ccc5c4)c3)CC2)=C(c2ccc(Cl)cc2)C1` [Venetoclax]: the “fraction absorbed (fa) of approved oral drugs” value is more than 65%.

Still in this data set, the particulars now being: oral, humans; compounds without fa values in man, estimate or proposal only.
Consider `COC[C@H]1C[C@@H](c2ncc(-c3ccc4c(c3)COc3cc5c(ccc6nc([C@@H]7CC[C@H](C)N7C(=O)[C@@H](NC(=O)OC)C(C)C)[nH]c65)cc3-4)[nH]2)N(C(=O)[C@H](NC(=O)OC)c2ccccc2)C1` [velpatasvir], for which the “estimated / proposed fa” value is 25-30%.
`C=CC[C@@H]1/C=C(\C)C[C@H](C)C[C@H](OC)[C@H]2O[C@@](O)(C(=O)C(=O)N3CCCC[C@H]3C(=O)O[C@H](/C(C)=C/[C@@H]3CC[C@@H](O)[C@H](OC)C3)[C@H](C)[C@@H](O)CC1=O)[C@H](C)C[C@@H]2OC` [tacrolimus]: the “estimated / proposed fa” value was more than 15%.
Take `CC1(C)S[C@@H]2[C@H](NC(=O)[C@H](NC(=O)N3CCN(S(C)(=O)=O)C3=O)c3ccccc3)C(=O)N2[C@H]1C(=O)O` [mezlocillin]: the “estimated / proposed fa” value is given as “zero”.

The conditions of another data set: <LOQ.
`CO[C@H]1/C=C/O[C@@]2(C)Oc3c(C)c(O)c4c(O)c(c5c(nc6cc(C)ccn65)c4c3C2=O)NC(=O)/C(C)=C\C=C\[C@H](C)[C@H](O)[C@@H](C)[C@@H](O)[C@@H](C)[C@H](OC(C)=O)[C@@H]1C` [rifaximin]: the “solubility in water (in words)” value is listed as “practically insoluble in water”.
`COC[C@H]1C[C@@H](c2ncc(-c3ccc4c(c3)COc3cc5c(ccc6nc([C@@H]7CC[C@H](C)N7C(=O)[C@@H](NC(=O)OC)C(C)C)[nH]c65)cc3-4)[nH]2)N(C(=O)[C@H](NC(=O)OC)c2ccccc2)C1` [velpatasvir]: the “solubility in water (in words)” value is listed as “practically insoluble in water”.
In the case of voclosporin, the “solubility in water (in words)” value is “practically insoluble in water”.
For the molecule `COC(=O)N[C@H](C(=O)N1CCC[C@H]1c1nc(-c2ccc3c(c2)O[C@@H](c2ccccc2)n2c-3cc3cc(-c4c[nH]c([C@@H]5CCCN5C(=O)[C@@H](NC(=O)OC)C(C)C)n4)ccc32)c[nH]1)C(C)C` [elbasvir], the “solubility in water (in words)” value is “practically insoluble in water”.
Regarding quinupristin, the “solubility in water (in words)” value is listed as “practically insoluble in water”.
Turning to anidulafungin, the “solubility in water (in words)” value is on record as “practically insoluble in water”.
As for `CC[C@H]1OC(=O)[C@H](C)[C@@H](O[C@H]2C[C@@](C)(OC)[C@@H](O)[C@H](C)O2)[C@H](C)[C@@H](O[C@@H]2O[C@H](C)C[C@H](N(C)C)[C@H]2O)[C@](C)(O)C[C@@H](C)CN(C)[C@H](C)[C@@H](O)[C@]1(C)O` [Azithromycin], the “solubility in water (in words)” value is on record as “practically insoluble in water”.
bivalirudin: the “solubility in water (in words)” value was “practically insoluble in water”.
Regarding `CC1(C)CCC(CN2CCN(c3ccc(C(=O)NS(=O)(=O)c4ccc(NCC5CCOCC5)c([N+](=O)[O-])c4)c(Oc4cnc5[nH]ccc5c4)c3)CC2)=C(c2ccc(Cl)cc2)C1` [Venetoclax], the “solubility in water (in words)” value is recorded as “practically insoluble in water”.
For `CO[C@H]1C[C@@H]2CC[C@@H](C)[C@@](O)(O2)C(=O)C(=O)N2CCCC[C@H]2C(=O)O[C@H]([C@H](C)C[C@@H]2CC[C@@H](OCCO)[C@H](OC)C2)CC(=O)[C@H](C)/C=C(\C)[C@@H](O)[C@@H](OC)C(=O)[C@H](C)C[C@H](C)/C=C/C=C/C=C/1C` [everolimus], the “solubility in water (in words)” value is “practically insoluble in water”.
In the case of `CO[C@H]1C[C@@H]2CC[C@@H](C)[C@@](O)(O2)C(=O)C(=O)N2CCCC[C@H]2C(=O)O[C@H]([C@H](C)C[C@@H]2CC[C@@H](OP(C)(C)=O)[C@H](OC)C2)CC(=O)[C@H](C)/C=C(\C)[C@@H](O)[C@@H](OC)C(=O)[C@H](C)C[C@H](C)/C=C/C=C/C=C/1C` [ridaforolimus], the “solubility in water (in words)” value is reported as “practically insoluble in water”.

The conditions of the next data set: oral bioavailability, not marked as animal data; source not stated per compound.
In the case of cholecystokinin octapeptide, the “observed F” value is 0.2%.
Turning to semaglutide, the “observed F” value is reported as 0.8%.
For the molecule `CC1(C)CC[C@]2(NC(=O)C(C)(F)F)CC[C@]3(C)[C@H](C(=O)C=C4[C@@]5(C)C=C(C#N)C(=O)C(C)(C)[C@@H]5CC[C@]43C)[C@@H]2C1` [omaveloxolone], the “observed F” value is recorded as 8%.
Regarding desmopressin, the “observed F” value was 0.08-0.16%.

Still in this data set, the particulars now being: species not stated; quoted as comparison for micafungin.
anidulafungin: the F was 2-7%.

The conditions of another data set: as reported in Table 1 and text; source and method not stated.
As for Teicoplanin A2 1, the “log P” value is on record as -2.3.
Turning to `CC(C)[C@@H](C)[C@@]1(C)CC[C@]2(C)[C@H]3CC[C@@H]4[C@@]5(COC[C@@]4(C)[C@@H](OC[C@](C)(N)C(C)(C)C)[C@H](n4ncnc4-c4ccncc4)C5)C3=CC[C@@]2(C)[C@@H]1C(=O)O` [Ibrexafungerp], the “log P” value is 5.8.
Take `COC(=O)N[C@H](C(=O)N1CCC[C@H]1c1nc(-c2ccc(-c3ccc(-c4c[nH]c([C@@H]5CCCN5C(=O)[C@@H](NC(=O)OC)C(C)C)n4)cc3)cc2)c[nH]1)C(C)C` [Daclatasvir]: the “log P” value is recorded as 5.1.
As for `CC[C@H]1OC(=O)[C@H](C)C(=O)[C@H](C)[C@@H](O[C@@H]2O[C@H](C)C[C@H](N(C)C)[C@H]2O)[C@](C)(OC/C=C/c2cnc3ccccc3c2)C[C@@H](C)C(=O)[C@H](C)[C@H]2NC(=O)O[C@@]21C` [Cethromycin], the “log P” value was 5.4.
With `COc1cc(F)c(C(C)C)cc1-c1ccc(C(F)(F)F)cc1CN1C(=O)O[C@H](c2cc(C(F)(F)F)cc(C(F)(F)F)c2)[C@@H]1C` [anacetrapib], the “log P” value is given as 9.3.
In the case of `CCc1c(Cl)c(O)c(Cl)c(O)c1C(=O)O[C@H]1[C@H](O)[C@H](OC)[C@H](OC/C2=C\C=C\C[C@H](O)/C(C)=C/[C@H](CC)[C@@H](O[C@@H]3OC(C)(C)[C@@H](OC(=O)C(C)C)[C@H](O)[C@@H]3O)/C(C)=C/C(C)=C/C[C@@H]([C@@H](C)O)OC2=O)O[C@@H]1C` [Fidaxomicin], the “log P” value was 6.4.
Regarding Neomycin, the “log P” value is recorded as -6.6.
On to `CC(C)c1nc(CN(C)C(=O)N[C@H](C(=O)N[C@@H](Cc2ccccc2)C[C@H](O)[C@H](Cc2ccccc2)NC(=O)OCc2cncs2)C(C)C)cs1` [Ritonavir], for which the “log P” value is 5.2.
As to `CC1(C)CCC(CN2CCN(c3ccc(C(=O)NS(=O)(=O)c4ccc(NCC5CCOCC5)c([N+](=O)[O-])c4)c(Oc4cnc5[nH]ccc5c4)c3)CC2)=C(c2ccc(Cl)cc2)C1` [Venetoclax], the “log P” value is recorded as 8.2.
On to `COC(=O)N[C@H](C(=O)N1CCC[C@H]1C(=O)Nc1ccc([C@@H]2CC[C@@H](c3ccc(NC(=O)[C@@H]4CCCN4C(=O)[C@@H](NC(=O)OC)C(C)C)cc3)N2c2ccc(C(C)(C)C)cc2)cc1)C(C)C` [Ombitasvir], for which the “log P” value is listed as 5.7.
Take `CN1Cc2c(Cl)cc(Cl)cc2[C@H](c2cccc(S(=O)(=O)NCCOCCOCCNC(=O)NCCCCNC(=O)NCCOCCOCCNS(=O)(=O)c3cccc([C@@H]4CN(C)Cc5c(Cl)cc(Cl)cc54)c3)c2)C1` [Tenapanor]: the “log P” value is reported as 4.8.

For a further data set the following is noted: assay not specified.
With `C=C1C[C@@]23CC[C@H]4[C@@](C)(CCC[C@@]4(C)C(=O)O[C@@H]4O[C@H](CO)[C@@H](O)[C@H](O)[C@H]4O)[C@@H]2CC[C@]1(O[C@@H]1O[C@H](CO)[C@@H](O)[C@H](O)[C@H]1O[C@@H]1O[C@H](CO)[C@@H](O)[C@H](O)[C@H]1O)C3` [stevioside], the “in vitro permeability (in words)” value is recorded as “limited permeability”.
Regarding `NNC(=O)NN1C(=O)c2cc(S(=O)(=O)O)cc3c(N)c(S(=O)(=O)O)cc(c23)C1=O` [lucifer yellow CH], the “in vitro permeability (in words)” value was “moderate in vitro permeability”.
Regarding pasireotide, the “in vitro permeability (in words)” value is “low in vitro permeability”.

The same data set, now with this note: not able to quantify in an in vitro permeability assay (≤LOQ).
In the case of octreotide, the “in vitro permeability, not able to quantify” value is “≤ LOQ”.
On to Vancomycin, for which the “in vitro permeability, not able to quantify” value is reported as “≤ LOQ”.
In the case of `CO/N=C(\C(=O)N[C@@H]1C(=O)N2C(C(=O)O)=C(CSc3nc(=O)c(=O)[nH]n3C)CS[C@H]12)c1csc(N)n1` [Ceftriaxone], the “in vitro permeability, not able to quantify” value is listed as “≤ LOQ”.
With terlipressin, the “in vitro permeability, not able to quantify” value was “≤ LOQ”.
For the molecule `CC[C@]1(O)C[C@H]2CN(CCc3c([nH]c4ccccc34)[C@@](C(=O)OC)(c3cc4c(cc3OC)N(C=O)[C@H]3[C@@](O)(C(=O)OC)[C@H](OC(C)=O)[C@]5(CC)C=CCN6CC[C@]43[C@@H]65)C2)C1` [vincristine], the “in vitro permeability, not able to quantify” value is listed as “≤ LOQ”.
Regarding dalbavancin, the “in vitro permeability, not able to quantify” value is reported as “≤ LOQ”.
`Nc1nc(=O)c2c([nH]1)NCC(CNc1ccc(C(=O)N[C@@H](CCC(=O)O)C(=O)O)cc1)N2C=O` (mixture of isomers) [Folinic acid]: the “in vitro permeability, not able to quantify” value is reported as “≤ LOQ”.
Consider `Cc1ccc(C(=O)Nc2ccc(S(=O)(=O)O)c3cc(S(=O)(=O)O)cc(S(=O)(=O)O)c23)cc1NC(=O)c1cccc(NC(=O)Nc2cccc(C(=O)Nc3cc(C(=O)Nc4ccc(S(=O)(=O)O)c5cc(S(=O)(=O)O)cc(S(=O)(=O)O)c45)ccc3C)c2)c1` [suramin], for which the “in vitro permeability, not able to quantify” value is reported as “≤ LOQ”.
Turning to `N#C[C@H](O[C@@H]1O[C@H](CO[C@@H]2O[C@H](CO)[C@@H](O)[C@H](O)[C@H]2O)[C@@H](O)[C@H](O)[C@H]1O)c1ccccc1` [Amygdalin], the “in vitro permeability, not able to quantify” value was “≤ LOQ”.
`CC(=O)O[C@H]1C(=O)[C@@]2(C)[C@H]([C@H](OC(=O)c3ccccc3)[C@]3(O)C[C@H](OC(=O)[C@H](O)[C@@H](NC(=O)c4ccccc4)c4ccccc4)C(C)=C1C3(C)C)[C@]1(OC(C)=O)CO[C@@H]1C[C@@H]2O` [paclitaxel]: the “in vitro permeability, not able to quantify” value is recorded as “≤ LOQ”.
As for `CC(C)(C)OC(=O)N[C@H]1CCCCC/C=C\[C@@H]2C[C@@]2(C(=O)NS(=O)(=O)C2CC2)NC(=O)[C@@H]2C[C@@H](OC(=O)N3Cc4cccc(F)c4C3)CN2C1=O` [danoprevir], the “in vitro permeability, not able to quantify” value is “≤ LOQ”.
Regarding `CO/N=C(\C(=O)N[C@@H]1C(=O)N2C(C(=O)O)=C(CSc3nc(C)c(CC(=O)O)s3)CS[C@H]12)c1csc(N)n1` [Cefodizime], the “in vitro permeability, not able to quantify” value is recorded as “≤ LOQ”.
With `COC(=O)N[C@H](C(=O)N1CCC[C@H]1C(=O)Nc1ccc([C@@H]2CC[C@@H](c3ccc(NC(=O)[C@@H]4CCCN4C(=O)[C@@H](NC(=O)OC)C(C)C)cc3)N2c2ccc(C(C)(C)C)cc2)cc1)C(C)C` [Ombitasvir], the “in vitro permeability, not able to quantify” value was “≤ LOQ”.
